Where “and” joins values, the source holds several entries; their conditions need not be identical. Identical values can stand only once.
System: 282377-053-R-J1-PDC complex spheroids, viability
Test: Anticancer human tumor 282377-053-R-J1-PDC patient-derived colon adenocarcinoma cell line growth inhibition [GQUAD]
Conditions: for viability, T/C: stronger effect = lower value; active means viability on the fitted dose curve at most 10% of control; inactive means the rest
Excerpt: DNA G-quadruplex Stabilizer Agents in Combinations in Complex Spheroids
A high-throughput screen of multi-cell type tumor spheroids was designed to identify active combinations of DNA G-quadruplex stabilizer agents and targeted small molecules. Complex spheroids include a stromal component modeled by human endothelial cells (HUVEC) and fibroblasts modeled by human mesenchymal stem cells (MSCs). The concentration ranges selected for each drug and investigational agent were based upon clinically achievable concentrations if the clinical Cmax of the agent was known.
Compounds. The drugs and investigational agents: pidnarulex (CX-5461; NSC782164), APTO-253 (NSC789042), BRACO-19 (NSC847499), peposertib (NSC802822), ceralasertib (NSC780249), elimusertib (NSC800525), camonsertib (NSC841442), AZD-1390 (NSC803789), olaparib (NSC753686), talazoparib (NSC767125), ART-558 (NSC835418), sotorasib (NSC818433), MRTX-1133 (NSC836407), SN-38 (NSC673596), topotecan (NSC609699), etoposide (NSC141540), doxorubicin (NSC123127), gemcitabine (NSC613327), 5-fluorouracil (NSC19893), paclitaxel (NSC125973), vemurafenib (NSC761431), panobinostat (NSC761190), R-306465 (JNJ-16241199; NSC773264), adavosertib (NSC754352), TP-3654 (NSC805149), carboplatin (NSC241240), KSQ-4279 (NSC840948), and staurosporine (NSC755774) were obtained from the National Cancer Institute (NCI) Developmental Therapeutics Program Chemical Repository (34). The FDA-approved anticancer drug set is available from the NCI Developmental Therapeutics Program. […] The stock solutions were prepared in dimethyl sulfoxide (DMSO, Sigma-Aldrich, St. Louis, MO, cat. D2650) at 800-fold the tested concentration and stored at -70 degrees C prior to their use. All drugs and investigational agents were tested over a range starting from a high concentration at or near the clinical Cmax and decreasing in half-log increments. If the clinical Cmax for an agent had not been determined, the highest concentration tested was 10 microM.
2.3 Cell Culture. All cells were maintained in an incubator at 37 degrees C and 5% CO2 with 95% humidity. The PDC lines were cultured according to standard operating procedures established by the NCI PDMR. All PDCs were thawed and cultured in Matrigel-coated flasks prepared with a working solution of 1X Ham's F-12 nutrient mix, without supplementation (Invitrogen, cat. 11765054), 100 U/mL penicillin-streptomycin (Invitrogen, cat. 15140122), and 2.5% Matrigel (Corning Inc., cat. 354248) for the first three passages. The 857933-349-R-J2-PDC line was cultured in 6C/Colon 1B media, which includes advanced DMEM/F-12 (Thermo Fisher Scientific, cat. 12634028), 10 mM HEPES (Thermo Fisher Scientific, cat. 15630080), 1X GlutaMAX supplement (Thermo Fisher Scientific, cat. 35050061), 0.1 mg/mL primocin (InvivoGen, cat. ant-pm-2), 10% defined fetal bovine serum, heat inactivated (HyClone Laboratories Inc., cat. SH30070.03HI), 50% L-WRN conditioned media (ATCC, cat. CRL-3276), 1.25 mM N-Acetyl-L-cysteine (Sigma-Aldrich, cat. A9165), 10 mM nicotinamide (Sigma-Aldrich, cat. N0636), 1X B-27 supplement (Thermo Fisher Scientific, cat. 17504044), 1X N-2 supplement (Thermo Fisher Scientific, cat. 17502048), 10 microM Y-27632 dihydrochloride (Tocris Bioscience, cat. 1254), and 50 ng/mL human EGF recombinant protein (Thermo Fisher Scientific, cat. PHG0311). The 485176-168-R4-J1-PDC line was cultured in Panc media, which includes all 6C/Colon 1B media components plus 100 ng/mL human FGF-10 (Thermo Fisher Scientific, cat. 100-26), 500 nM SB-431542 (Selleckchem, cat. S1067), and gastrin (Tocris, cat. 3006).
[…]
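Further: spheroids exposed to compounds for 7 days before readout.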
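Wherever viability, T/C is given: percent of vehicle DMSO control viability with 100% = untreated-like growth.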

C=CCn1c(=O)c2cnc(Nc3ccc(N4CCN(C)CC4)cc3)nc2n1-c1cccc(C(C)(C)O)n1
inactive: viability, T/C (compound 0.0316 µM) 88.3% and 90.1% and 98.2% | viability, T/C (compound 0.1 µM) 65.9% and 82.6% and 109% | viability, T/C (compound 0.316 µM) 65.6% and 85.4% and 103% | viability, T/C (compound 1 µM) 66.5% and 75% and 72.4% | viability, T/C (compound 3.16 µM) 72.8% and 29.1% and 28% | viability, T/C (compound 10 µM) 17.2% and 15.7% and 17.4%
5010 nM and 1870 nM and 1780 nM: IC50 (curve of compound)

O=C(c1cc(Cc2n[nH]c(=O)c3ccccc23)ccc1F)N1CCN(C(=O)C2CC2)CC1
> 10000 nM: IC50 (curve of compound)
inactive: viability, T/C (compound 0.0316 µM) 98.7% and 97.4% and 108% | viability, T/C (compound 0.1 µM) 111% and 100% and 110% | viability, T/C (compound 0.316 µM) 100% and 98.7% and 102% | viability, T/C (compound 1 µM) 93.8% and 105% and 109% | viability, T/C (compound 3.16 µM) 116% and 100% and 111% | viability, T/C (compound 10 µM) 106% and 82.9% and 90.7%

CCc1c2c(nc3ccc(O)cc13)-c1cc3c(c(=O)n1C2)COC(=O)[C@]3(O)CC + Cc1cnc(CNC(=O)c2c(=O)c3ccc(N4CCCN(C)CC4)nc3n3c2sc2ccccc23)cn1
24.8 nM: IC50 (curve of first compound, second compound 0.316 µM)
8.72 nM: IC50 (curve of first compound, second compound 1 µM)
inactive: viability, T/C (second compound 0.0316 µM, first compound 0.000999 µM) 117% | viability, T/C (second compound 0.0316 µM, first compound 0.00316 µM) 96.3% | viability, T/C (second compound 0.0316 µM, first compound 0.00999 µM) 57.4% | viability, T/C (second compound 0.0316 µM, first compound 0.0316 µM) 56.4% | viability, T/C (second compound 0.0316 µM, first compound 0.0999 µM) 43.5% | viability, T/C (second compound 0.0316 µM, first compound 0.316 µM) 27.2% | viability, T/C (second compound 0.1 µM, first compound 0.000999 µM) 88.4% | viability, T/C (second compound 0.1 µM, first compound 0.00316 µM) 79.4% | viability, T/C (second compound 0.1 µM, first compound 0.00999 µM) 57.3% | viability, T/C (second compound 0.1 µM, first compound 0.0316 µM) 59.4% | viability, T/C (second compound 0.1 µM, first compound 0.0999 µM) 46.5% | viability, T/C (second compound 0.1 µM, first compound 0.316 µM) 27.9% | viability, T/C (second compound 0.316 µM, first compound 0.000999 µM) 81.8% | viability, T/C (second compound 0.316 µM, first compound 0.00316 µM) 67.9% | viability, T/C (second compound 0.316 µM, first compound 0.00999 µM) 55% | viability, T/C (second compound 0.316 µM, first compound 0.0316 µM) 51.5% | viability, T/C (second compound 0.316 µM, first compound 0.0999 µM) 38.5% | viability, T/C (second compound 0.316 µM, first compound 0.316 µM) 28.8% | viability, T/C (second compound 1 µM, first compound 0.000999 µM) 66% | viability, T/C (second compound 1 µM, first compound 0.00316 µM) 58.1% | viability, T/C (second compound 1 µM, first compound 0.00999 µM) 44.4% | viability, T/C (second compound 1 µM, first compound 0.0316 µM) 42.9% | viability, T/C (second compound 1 µM, first compound 0.0999 µM) 35.9% | viability, T/C (second compound 1 µM, first compound 0.316 µM) 25.1% | viability, T/C (second compound 3.16 µM, first compound 0.000999 µM) 46.6% | viability, T/C (second compound 3.16 µM, first compound 0.00316 µM) 41.5% | viability, T/C (second compound 3.16 µM, first compound 0.00999 µM) 37.5% | viability, T/C (second compound 3.16 µM, first compound 0.0316 µM) 40.9% | viability, T/C (second compound 3.16 µM, first compound 0.0999 µM) 33.4% | viability, T/C (second compound 3.16 µM, first compound 0.316 µM) 19.4% | viability, T/C (second compound 10 µM, first compound 0.000999 µM) 46.6% | viability, T/C (second compound 10 µM, first compound 0.00316 µM) 38.4% | viability, T/C (second compound 10 µM, first compound 0.00999 µM) 38.9% | viability, T/C (second compound 10 µM, first compound 0.0316 µM) 40.9% | viability, T/C (second compound 10 µM, first compound 0.0999 µM) 32.6% | viability, T/C (second compound 10 µM, first compound 0.316 µM) 11.1%
< 0.999 nM: IC50 (curve of first compound, second compound 3.16 µM) | IC50 (curve of first compound, second compound 10 µM)
49.8 nM: IC50 (curve of first compound, second compound 0.1 µM)
36.9 nM: IC50 (curve of first compound, second compound 0.0316 µM)
